The test system of data set [1] is Trypanosoma cruzi. In words: Antitrypanosomal activity against Trypanosoma cruzi trypomastigotes assessed as parasite growth inhibition. Type of data set: functional, organism-based.
Data set [2] relates to Fibroblast. Kind of data set: Cytotoxicity against mouse NCTC Fibroblast cells assessed as inhibition of cell growth. Type of data set: functional.
Data set [3] is described as follows: Selectivity index, ratio of CC50 for cytotoxicity against mouse NCTC Fibroblast cells assessed as inhibition of cell growth to EC50 for antitrypanosomal activity against Trypanosoma cruzi trypomastigotes assessed as parasite growth inhibition. It is filed as toxicity, cell-based. The settings on record: read-out: Ratio CC50/EC50.
Setting [4] is: Trypanosoma cruzi, read-out: EC50.

Experimental findings from ChEMBL document CHEMBL5252587, “Structure-activity relationship study of antitrypanosomal analogues of gibbilimbol B using multivariate analysis and computation-aided drug design” (Bioorg Med Chem Lett, 2023) are described below.

SMILES strings stand for the structures.

By EC50 is commonly meant the concentration needed to bring the measured effect to its halfway point. What is called CC50 is the concentration that lowers cell viability or growth by half.

Consider `CCCCC(CC)COC(=O)c1ccc([N+](=O)[O-])cc1` (centres undefined), for which the EC50 in data set [1] (setting [4]) came to 11.5 µM. In addition, in data set [2], the CC50 was > 200 µM. Also, in data set [3], the selectivity ratio was > 17.4.
With `CCC/C=C/CCCNC(=O)c1ccc(C(C)(C)C)cc1`, the EC50 in data set [1] (setting [4]) is 7.7 µM. Also, the CC50 in data set [2] was > 200 µM. In data set [3], the selectivity ratio is > 26.
For `CCC/C=C/CCCNC(=O)c1ccccc1`, the EC50 in data set [1] (setting [4]) came out at 71.3 µM. Also, the cytotoxic concentration (CC50) in data set [2] is > 200 µM. Moreover, the selectivity ratio in data set [3] is > 2.8.
In the case of `CCC/C=C/CCCOC(=O)c1ccc(C)cc1`, the concentration for a half-maximal effect (EC50) in data set [1] (setting [4]) was found to be 11.7 µM. Further, the CC50 in data set [2] was > 200 µM. In addition, the selectivity ratio in data set [3] is > 17.1.
In the case of `CCCCC(CC)COC(=O)c1ccc(C(C)(C)C)cc1` (centres undefined), the EC50 result in data set [1] is “Not Active”. For the same molecule, in data set [2], the CC50 is > 200 µM.
For the molecule `CCCCC(CC)COC(=O)c1ccc(Cl)cc1` (centres undefined), the 50% effective concentration (EC50) in data set [1] (setting [4]) was determined as 15.6 µM. In addition, the CC50 in data set [2] was > 200 µM. For the same molecule, the selectivity ratio in data set [3] is > 12.8.
As for `CCCCC(CC)CNC(=O)c1ccc(C(C)(C)C)cc1` (centres undefined), the concentration giving a half-maximal response (EC50) entry in data set [1] is given as “Not Active”. Moreover, in data set [2], the CC50 is > 200 µM.
As for `CCC/C=C/CCCOC(=O)c1ccc([N+](=O)[O-])cc1`, in data set [1] (setting [4]), the concentration giving a half-maximal response (EC50) was determined as 5.6 µM. In data set [2], the 50% cytotoxic concentration (CC50) is > 200 µM. For the same molecule, the selectivity ratio in data set [3] was > 35.1.
In the case of `CCCCC(CC)CNC(=O)c1ccc([N+](=O)[O-])cc1` (centres undefined), the EC50 in data set [1] (setting [4]) is 22 µM. Further, in data set [2], the half-maximal cytotoxic concentration (CC50) is > 200 µM. In addition, the selectivity ratio in data set [3] is > 9.1.
Regarding `CCC/C=C/CCCOC(=O)c1ccc(F)cc1`, the EC50 in data set [1] (setting [4]) was 20.8 µM. In addition, the CC50 in data set [2] was > 200 µM. Besides, in data set [3], the selectivity ratio was > 9.6.
On the same counts, the results for `CCCCC(CC)COC(=O)c1ccc(C)cc1` (centres undefined) are 19.7 µM, > 200 µM and > 10.2.
On to `CCC/C=C/CCCNC(=O)c1ccc(F)cc1`, for which the EC50 in data set [1] (setting [4]) amounted to 71.4 µM. Further, the CC50 in data set [2] was > 200 µM. Further, in data set [3], the selectivity ratio is > 2.8.
On to `CCC/C=C/CCCOC(=O)c1ccc(OC)cc1`, for which the EC50 in data set [1] (setting [4]) was 15.6 µM. In addition, the 50% cytotoxic concentration (CC50) in data set [2] is > 200 µM. For the same molecule, the selectivity ratio in data set [3] was > 12.8.
With `CCC/C=C/CCCNC(=O)c1ccc(OC)cc1`, the EC50 in data set [1] (setting [4]) is 25.9 µM. Also, in data set [2], the CC50 was > 200 µM. Moreover, in data set [3], the selectivity ratio is > 7.7.
On the same counts, the results for `CCCCC(CC)CNC(=O)c1ccc(F)cc1` (centres undefined) are 36.6 µM, 157 µM and 4.3.
`CCC/C=C/CCCOC(=O)c1ccccc1`: the EC50 in data set [1] (setting [4]) was determined as 77.4 µM. Further, in data set [2], the CC50 was > 200 µM. For the same molecule, the selectivity ratio in data set [3] is > 2.6.
Turning to `CCC/C=C/CCCNC(=O)c1ccc(C)cc1`, the EC50 in data set [1] (setting [4]) is 37.7 µM. The cytotoxic concentration (CC50) in data set [2] was > 200 µM. The selectivity ratio in data set [3] was > 5.3.
On to `CCC/C=C/CCCNC(=O)c1ccc(Cl)cc1`, for which the 50% effective concentration (EC50) in data set [1] (setting [4]) is 28.7 µM. For the same molecule, the CC50 in data set [2] is > 200 µM. Besides, the selectivity ratio in data set [3] is > 7.
In the case of `CCCCC(CC)COC(=O)c1ccc(F)cc1` (centres undefined), the EC50 in data set [1] (setting [4]) worked out at 42.4 µM. For the same molecule, in data set [2], the half-maximal cytotoxic concentration (CC50) is > 200 µM. Besides, the selectivity ratio in data set [3] was > 4.7.
Regarding `CCCCC/C=C/CCCOC(=O)c1ccc(O)cc1`, the EC50 in data set [1] (setting [4]) worked out at 75.3 µM. The 50% cytotoxic concentration (CC50) in data set [2] was > 200 µM. Further, the selectivity ratio in data set [3] was > 2.7.
In the case of `CCCCC(CC)CNC(=O)c1ccc(Cl)cc1` (centres undefined), the half-maximal effective concentration (EC50) in data set [1] (setting [4]) is 20.7 µM. For the same molecule, the cytotoxic concentration (CC50) in data set [2] is > 200 µM. For the same molecule, in data set [3], the selectivity ratio is > 9.7.
On to `CCC/C=C/CCCOC(=O)c1ccc(C(C)(C)C)cc1`, for which the concentration for a half-maximal effect (EC50) entry in data set [1] is reported as “Not Active”. In addition, the 50% cytotoxic concentration (CC50) in data set [2] was > 200 µM.
Turning to `CCC/C=C/CCCNC(=O)c1ccc([N+](=O)[O-])cc1`, the EC50 in data set [1] (setting [4]) came to 24.4 µM. Besides, the 50% cytotoxic concentration (CC50) in data set [2] was found to be 158 µM. Besides, in data set [3], the selectivity ratio was found to be 6.5.
In the case of `CCC/C=C/CCCOC(=O)c1ccc(Cl)cc1`, the EC50 in data set [1] (setting [4]) turned out to be 19.8 µM. For the same molecule, the CC50 in data set [2] was > 200 µM. In data set [3], the selectivity ratio was > 10.1.
Take `CCCCC(CC)CNC(=O)c1ccc(C)cc1` (centres undefined): the EC50 in data set [1] (setting [4]) was found to be 21.3 µM. Also, in data set [2], the CC50 was > 200 µM. Moreover, the selectivity ratio in data set [3] is > 9.4.
With `O=C(Cn1ccnc1[N+](=O)[O-])NCc1ccccc1` [BENZNIDAZOLE], the CC50 in data set [2] was > 200 µM. In data set [3], the selectivity ratio was > 16.
